Test results published in patent US20220267329A1, “Dihydro-Spiro[Indoline-3:1'-Isoquinolin]-2-Ones and Their Analogues and Derivatives and Methods of Treating Cancer and Other Diseases” (The University of Buea, priority 2019, published 2022).

How the values were obtained:
[1] = tested on: EMT6 breast cancer cell line; assay: Antiproliferative screening on EMT6 cancer cells; format: cell-based; details: for activity at 100 µM: Mus musculus, EMT6, no ligand = 100, read-out: EMT6 cell proliferation (%); for EMT6 cell proliferation (%) / inhibition of EMT6 cell proliferation: 100 μM; for EMT6 cell proliferation (%): no ligand = 100
Method: Representative compounds were screened tested for antiproliferative activity on the EMT6 breast cancer cell line. Screening was carried out according to published procedures (Zeng et al., 2014). In this screen, compounds were tested at 100 μM concentration.

[2] = target: sphingosine-1-phosphate receptor 1 (S1PR1) (Homo sapiens, UniProt P21453); assay: Radioligand binding to sphingosine-1-phosphate receptor 1; details: test compound 100 nM, 0.2 nM radioligand; for inhibition at 0.1 µM: read-out: % INHIBITION of binding to the SIP1 Receptor
sphingosine-1-phosphate receptor 1 (S1PR1), sequence (P21453 whole entry, species assumed): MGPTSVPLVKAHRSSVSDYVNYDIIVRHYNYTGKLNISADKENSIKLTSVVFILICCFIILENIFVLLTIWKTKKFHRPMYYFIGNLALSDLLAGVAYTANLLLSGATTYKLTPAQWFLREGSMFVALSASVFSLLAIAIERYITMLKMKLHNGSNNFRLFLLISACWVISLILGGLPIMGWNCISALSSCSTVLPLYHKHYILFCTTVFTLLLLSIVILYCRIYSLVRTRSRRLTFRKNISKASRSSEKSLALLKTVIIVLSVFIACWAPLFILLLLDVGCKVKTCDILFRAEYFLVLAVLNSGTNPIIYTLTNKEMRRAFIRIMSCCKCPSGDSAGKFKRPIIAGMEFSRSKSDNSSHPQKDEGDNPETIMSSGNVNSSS
Method: The binding of a representative group of compounds of this invention to sphingosine-1-phosphate receptor 1 (S1PR1) was determined by a published procedure (Rosenberg et al., 2016). In this assay, the test compound at 100 nM concentration was incubated with 0.2 nM radioligand. Active compounds or “hits” are defined as compounds that inhibit radioligand binding by 50% or more. […] This finding is significant because it establishes the 3′,4′-dihydro-2′H-[…]-2-one hybrid scaffold as an entirely new class of ligands for the sphingosine-1-phosphate receptors.

[3] = tested on: nonsmall cell lung cancer (NSCLC) cell lines; assay: NCI-60 screen, NSCLC cell lines; format: cell-based, human; details: Homo sapiens, NCI-60 preliminary screening, read-out: Percent (%) Inhibition of Cancer Cell Line, NSCLC
Method: (§1) Screening for Anticancer Activity—The NCI-60 panel: Representative compounds of the invention were subjected to anticancer testing in the National Cancer Institute (NCI) 60 screen. In this screen compounds are tested on a panel of sixty human cancer cell lines chosen from the following cancers: leukemia, nonsmall cell lung cancer (NSCLC), colon, melanoma, central nervous system (CNS), ovarian, renal, prostate and breast. The assay method is found on the NCI website (dtp.cancer.gov/discovery_development/nci-60/methodology.htm). In the NCI-60 assay, test compounds undergo preliminary screening at 10 μM concentration. The data is reported as percent growth relative to “no drug” control; therefore values between 0 and 100% denote growth inhibition.

renal cancer cell lines = assay: NCI-60 screen, renal cell lines; format: cell-based, human; details: Homo sapiens, NCI-60 preliminary screening, read-out: Percent (%) Inhibition of Cancer Cell Line, Renal Cell
Method: as §1

leukemia cell lines = assay: NCI-60 screen, leukemia cell lines; format: cell-based; details: Homo sapiens, NCI-60 preliminary screening, read-out: Percent (%) Inhibition of Cancer Cell Line, Leukemia
Method: as §1

Row | inhibition at 0.1 µM [2] | SMILES | activity at 100 µM [1] | also measured
1 | – | O=C1Nc2c(Br)cc(Br)cc2C12NCCc1cccc(O)c12 (stereo not drawn) [Compound 1c, 5,7-Dibromo-8′-hydroxy-3′,4′-dihydro-2′H-spiro[indoline-3,1′-isoquinolin]-2-one] | 87.6% | –
2 | ≥ 50% | O=C1N(Cc2ccc(Br)cc2)c2ccccc2C12NCCc1cccc(O)c12 (stereo not drawn) [Compound 1f, 1-(4-bromobenzyl)-8′-hydroxy-3′,4′-dihydro-2′H-spiro[indoline-3,1′-isoquinolin]-2-one] | 103% | –
3 | ≥ 50% | Cc1ccc(CN2C(=O)C3(NCCc4cccc(O)c43)c3ccccc32)cc1 (stereo not drawn) [Compound 1h, 8′-Hydroxy-1-(4-methylbenzyl)-3′,4′-dihydro-2′H-spiro[indoline-3,1′-isoquinolin]-2-one] | 127% | –
4 | – | O=C1N(Cc2ccccc2[N+](=O)[O-])c2ccccc2C12NCCc1cccc(O)c12 (stereo not drawn) [Compound 1i, 8-Hydroxy-1-(2-nitrobenzyl)-3′,4′-dihydro-2′H-spiro[indoline-3,1′-isoquinolin]-2-one] | – | EMT6 cell proliferation (%) [1]: 108.20%; % INHIBITION of binding to the SIP1 Receptor [2]: 35.4%
5 | ≥ 50% | O=C1N(Cc2ccc(F)cc2)c2ccc(Cl)cc2C12NCCc1cccc(O)c12 (stereo not drawn) [Compound 1k, 5-Chloro-1-(4-fluorobenzyl)-8′-hydroxy-3′,4′-dihydro-2′H-spiro[indoline-3,1′-isoquinolin]-2-one] | – | –
6 | ≥ 50% | O=C1N(Cc2ccc(Cl)cc2)c2ccc(Cl)cc2C12NCCc1cccc(O)c12 (stereo not drawn) [Compound 1l, 5-Chloro-1-(4-chlorobenzyl)-8′-hydroxy-3′,4′-dihydro-2′H-spiro[indoline-3,1′-isoquinolin]-2-one] | – | –
7 | – | O=C1Nc2ccc(Cl)cc2C12NCCc1cc(O)ccc12 (stereo not drawn) [Compound 2b, 5-Chloro-6′-hydroxy-3′,4′-dihydro-2′H-spiro[indoline-3,1′-isoquinolin]-2-one] | 109% | inhibition at 10 µM [3]: 17%; inhibition at 10 µM (renal cancer cell lines): 17%
8 | – | O=C1N(Cc2ccc(F)cc2)c2ccccc2C12NCCc1cc(O)ccc12 (stereo not drawn) [Compound 2d, 1-(4-Fluorobenzyl)-6′-hydroxy-3′,4′-dihydro-2′H-spiro[indolline-3,1′-isoquinolin]-2-one] | – | EMT6 cell proliferation (%) [1]: 123.61%
9 | – | O=C1N(Cc2ccc(Cl)cc2)c2ccccc2C12NCCc1cc(O)ccc12 (stereo not drawn) [Compound 2e, 1-(4-Chlorobenzyl)-6′-hydroxy-3′,4′-dihydro-2′H-spiro[indoline-3,1′-isoquinolin]-2-one] | 72.2% | –
10 | – | O=C1N(Cc2ccc(Br)cc2)c2ccccc2C12NCCc1cc(O)ccc12 (stereo not drawn) [Compound 2f, 1-(4-bromobenzyl)-6′-hydroxy-3′,4′-dihydro-2′H-spiro[indoline-3,1′-isoquinolin]-2-one] | 41.4% | inhibition of EMT6 cell proliferation [1]: as much as fifty percent
11 | – | Cc1ccc(CN2C(=O)C3(NCCc4cc(O)ccc43)c3ccccc32)cc1 (stereo not drawn) [Compound 2h, 6′-Hydroxy-1-(4-methylbenzyl)-3′,4′-dihydro-2′H-spiro[indoline-3,1′-isoquinolin]-2-one] | 132% | inhibition at 10 µM [3]: 32%; inhibition at 10 µM (leukemia cell lines): 24%; inhibition at 10 µM (renal cancer cell lines): 25%
12 | – | O=C1N(Cc2ccccc2[N+](=O)[O-])c2ccccc2C12NCCc1cc(O)ccc12 (stereo not drawn) [Compound 2i, 6′-Hydroxy-1-(2-nitrobenzyl)-3′,4′-dihydro-2′H-spiro[indoline-3,1′-isoquinolin]-2-one] | 98.5% | –
13 | – | O=C1N(Cc2ccc(F)cc2)c2ccc(Cl)cc2C12NCCc1cc(O)ccc12 (stereo not drawn) [Compound 2k, 5-Chloro-1-(4-fluorobenzyl)-6′-hydroxy-3′,4′-dihydro-2′H-spiro[indoline-3,1′-isoquinolin]-2-one] | 131% | –
14 | ≥ 50% | O=C1N(Cc2ccc(Cl)cc2)c2ccc(Cl)cc2C12NCCc1cc(O)ccc12 (stereo not drawn) [Compound 2l, 5-Chloro-1-(4-chlorobenzyl)-6′-hydroxy-3′,4′-dihydro-2′H-spiro[indoline-3,1′-isoquinolin]-2-one] | 37.2% | inhibition of EMT6 cell proliferation [1]: as much as fifty percent
15 | – | Cc1ccc(CN2C(=O)C3(NCCc4cc(O)ccc43)c3cc(Cl)ccc32)cc1 (stereo not drawn) [Compound 2m, 5-Chloro-6′-hydroxy-1-(4-methylbenzyl)-3′,4′-dihydro-2′ spiro[indoline-3,1′-isoquinolin]-2-one] | – | EMT6 cell proliferation (%) [1]: 72.26%; % INHIBITION of binding to the SIP1 Receptor [2]: 52.4%
16 | – | O=C1Nc2ccccc2C12NCCc1cc(O)c(O)cc12 (stereo not drawn) [Compound 3a, 6′,7′-Dihydroxy-3′,4′-dihydro-2′H-spiro[indoline-3,1′-isoquinolin]-2-one] | 91.2% | –
17 | – | O=C1Nc2ccc(Cl)cc2C12NCCc1cc(O)c(O)cc12 (stereo not drawn) [Compound 3b, 5-Chloro-6′,7′-dibydroxy-3′,4′-dihydro-2′H-spiro[indoline-3,1′-isoquinolin]-2-one] | – | % INHIBITION of binding to the SIP1 Receptor [2]: 34.2%
18 | – | COc1ccc2c(c1)CCNC21C(=O)Nc2ccc(Cl)cc21 (stereo not drawn) [Compound 4b, 5-Chloro-6′-methoxy-3′,4′-dihydro-2′H-spiro[indoline-3,1′-isoquinolin]-2-one] | 142% | inhibition at 10 µM (renal cancer cell lines): 23 to 30%
19 | 36.3% | COc1ccc2c(c1)CCNC21C(=O)Nc2c(Br)cc(Br)cc21 (stereo not drawn) [Compound 4c, 5,7-Dibromo-6′-methoxy-3′,4′-dihydro-2′H-spiro[indoline-3,1′-isoquinolin]-2-one] | – | –
20 | 41.5% | COc1ccc2c(c1)CCNC21C(=O)N(Cc2ccc(F)cc2)c2ccccc21 (stereo not drawn) [Compound 4d, 6′-Methoxy-1-(4-fluorobenzyl)-3′,4′-dihydro-2′H-spiro[indoline-3,1′-isoquinolin]-2-one] | – | –
21 | 39.1% | COc1cc2c(cc1OC)C1(NCC2)C(=O)Nc2ccccc21 (stereo not drawn) [Compound 5a, 6′,7′-Dimethoxy-3′,4′-dihydro-2′H-spiro[indoline-3,1′-isoquinolin]-2-one] | – | inhibition at 10 µM (renal cancer cell lines): 25 to 37%
22 | 40% | COc1cc2c(cc1OC)C1(NCC2)C(=O)N(Cc2ccc(F)cc2)c2ccccc21 (stereo not drawn) [Compound 5d, 1-(4-fluorobenzyl)-6′,7′-dimethoxy-3′,4′-dihydro-2′H-spiro[indoline-3,1′-isoquinolin]-2-one] | – | –
23 | 38.4% | COc1cc2c(c(OC)c1OC)C1(NCC2)C(=O)Nc2ccccc21 (stereo not drawn) [Compound 6a, 6′,7′,8′-Trimethoxy-3′,4′-dihydro-2′H-spiro[indoline-3,1′-isoquinolin]-2-one] | – | inhibition at 10 µM (leukemia cell lines): 22%; inhibition at 10 µM (renal cancer cell lines): 22%
24 | 36.7% | COc1cc2c(c(OC)c1OC)C1(NCC2)C(=O)Nc2c(Br)cc(Br)cc21 (stereo not drawn) [Compound 6c, 5,7-Dibromo-6′,7′,8′-trimethoxy-3′,4′-dihydro-2′H-spiro[indoline-3,1′-isoquinolin]-2-one] | – | –
25 | ≥ 50% | COc1cc2c(c(OC)c1OC)C1(NCC2)C(=O)N(Cc2ccc(F)cc2)c2ccccc21 (stereo not drawn) [Compound 6d, 1-(4-Fluorobenzyl)-6′,7′,8′-trimethoxy-3′,4′-dihydro-2′H-spiro[indoline-3,1′-isoquinolin]-2-one] | – | –
26 | 31.3% | COc1cc2c(c(OC)c1OC)C1(NCC2)C(=O)N(Cc2ccc(C)cc2)c2ccccc21 (stereo not drawn) [Compound 6e, 6′,7′,8′-Trimethoxy-1-(4-methylbenzyl)-3′,4′-dihydro-2′H-spiro[indoline-3,1′-isoquinolin]-2-one] | – | –
